Test results: ChEMBL document CHEMBL1201862, “PubChem BioAssay data set” (2004)
The source made the active and inactive calls.

Experiments:
[1] = biological target: T1, Replicative DNA helicase DnaB (Mycobacterium tuberculosis, UniProt P9WMR3); test: DnaB intein splicing inhibitors, dose response, biochemical, cell-free fluorescence (AID 449749); format: functional
T1 sequence (P9WMR3 whole entry): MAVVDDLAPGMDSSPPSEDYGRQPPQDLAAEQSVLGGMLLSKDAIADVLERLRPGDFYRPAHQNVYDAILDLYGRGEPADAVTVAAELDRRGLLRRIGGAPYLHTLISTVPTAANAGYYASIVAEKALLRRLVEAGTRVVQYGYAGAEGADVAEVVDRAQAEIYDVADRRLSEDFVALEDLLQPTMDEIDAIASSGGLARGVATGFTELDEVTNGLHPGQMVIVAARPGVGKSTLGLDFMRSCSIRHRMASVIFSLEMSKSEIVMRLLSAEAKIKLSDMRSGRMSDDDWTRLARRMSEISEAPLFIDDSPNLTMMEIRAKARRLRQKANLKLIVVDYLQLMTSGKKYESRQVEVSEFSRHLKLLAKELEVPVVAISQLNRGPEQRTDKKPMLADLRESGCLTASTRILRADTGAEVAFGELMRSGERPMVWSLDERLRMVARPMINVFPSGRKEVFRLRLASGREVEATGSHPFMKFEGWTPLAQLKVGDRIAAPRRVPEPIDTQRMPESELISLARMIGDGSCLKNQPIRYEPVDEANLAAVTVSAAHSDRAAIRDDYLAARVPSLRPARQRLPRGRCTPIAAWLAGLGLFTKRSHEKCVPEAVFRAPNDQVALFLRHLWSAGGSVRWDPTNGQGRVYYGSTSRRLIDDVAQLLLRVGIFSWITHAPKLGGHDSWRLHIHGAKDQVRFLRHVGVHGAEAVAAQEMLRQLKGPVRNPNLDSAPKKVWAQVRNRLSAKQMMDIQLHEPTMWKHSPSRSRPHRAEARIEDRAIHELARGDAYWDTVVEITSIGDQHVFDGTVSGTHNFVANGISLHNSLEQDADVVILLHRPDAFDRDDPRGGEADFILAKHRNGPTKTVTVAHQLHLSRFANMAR

[2] = biological target: T2, Protein skinhead-1 (Caenorhabditis elegans, UniProt P34707); format: functional
T2 sequence (P34707 whole entry): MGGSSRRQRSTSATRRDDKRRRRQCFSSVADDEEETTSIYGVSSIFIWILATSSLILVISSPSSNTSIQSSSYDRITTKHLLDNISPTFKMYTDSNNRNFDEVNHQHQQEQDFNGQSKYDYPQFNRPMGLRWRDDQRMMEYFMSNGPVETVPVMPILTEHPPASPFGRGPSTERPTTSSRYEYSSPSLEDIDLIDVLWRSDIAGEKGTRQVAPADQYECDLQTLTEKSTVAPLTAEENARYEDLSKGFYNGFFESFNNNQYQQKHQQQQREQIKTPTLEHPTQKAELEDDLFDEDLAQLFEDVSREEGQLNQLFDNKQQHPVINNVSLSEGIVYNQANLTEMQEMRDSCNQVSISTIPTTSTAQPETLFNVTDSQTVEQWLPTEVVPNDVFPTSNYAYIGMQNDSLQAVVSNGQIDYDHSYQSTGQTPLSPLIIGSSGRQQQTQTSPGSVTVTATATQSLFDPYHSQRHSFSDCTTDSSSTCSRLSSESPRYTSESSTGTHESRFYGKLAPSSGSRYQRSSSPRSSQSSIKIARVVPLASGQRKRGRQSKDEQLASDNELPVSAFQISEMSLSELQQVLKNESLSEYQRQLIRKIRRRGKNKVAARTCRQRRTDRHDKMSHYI

[3] = biological target: T3, Protein RecA (Mycobacterium tuberculosis, UniProt P9WHJ3); test: Fluorescence Cell-Free Homogeneous Dose Retest to Identify Inhibitors of RecA-Intein Splicing Activity. [Related pubchem assays (depositor defined):AID2097, AID2223, AID489010, AID492950]; format: functional
T3 sequence (P9WHJ3 whole entry): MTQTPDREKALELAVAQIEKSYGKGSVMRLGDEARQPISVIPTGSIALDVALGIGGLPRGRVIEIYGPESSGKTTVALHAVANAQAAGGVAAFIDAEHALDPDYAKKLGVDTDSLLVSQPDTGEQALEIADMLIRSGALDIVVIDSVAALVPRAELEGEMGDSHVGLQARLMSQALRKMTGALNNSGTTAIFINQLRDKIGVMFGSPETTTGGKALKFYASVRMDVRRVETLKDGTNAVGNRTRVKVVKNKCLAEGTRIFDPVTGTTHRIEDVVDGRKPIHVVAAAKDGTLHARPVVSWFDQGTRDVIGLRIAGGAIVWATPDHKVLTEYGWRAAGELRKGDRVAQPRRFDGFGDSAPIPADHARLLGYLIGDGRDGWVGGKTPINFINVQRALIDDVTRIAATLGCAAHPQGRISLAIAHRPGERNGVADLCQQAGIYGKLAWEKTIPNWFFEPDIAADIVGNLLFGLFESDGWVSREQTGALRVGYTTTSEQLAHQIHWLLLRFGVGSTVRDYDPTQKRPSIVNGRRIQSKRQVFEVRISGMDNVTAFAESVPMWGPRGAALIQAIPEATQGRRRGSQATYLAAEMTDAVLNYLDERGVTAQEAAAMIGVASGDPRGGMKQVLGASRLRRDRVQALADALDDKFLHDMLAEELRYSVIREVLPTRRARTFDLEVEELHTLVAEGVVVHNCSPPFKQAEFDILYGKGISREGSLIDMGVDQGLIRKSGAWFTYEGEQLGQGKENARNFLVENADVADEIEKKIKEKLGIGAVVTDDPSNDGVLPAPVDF

[4] = biological target: Nonstructural protein 1 (Influenza A virus, UniProt Q194T2); format: functional, Influenza A virus (A/California/07/2009(H1N1))
Chain of Nonstructural protein 1 (Q194T2 whole entry): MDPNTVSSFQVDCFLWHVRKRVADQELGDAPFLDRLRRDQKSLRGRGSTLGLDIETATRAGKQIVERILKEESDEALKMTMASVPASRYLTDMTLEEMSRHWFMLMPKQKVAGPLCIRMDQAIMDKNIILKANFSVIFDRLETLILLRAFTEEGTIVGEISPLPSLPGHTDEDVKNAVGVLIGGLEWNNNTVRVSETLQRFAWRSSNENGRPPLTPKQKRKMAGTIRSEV

SMILES | AC50 [1] | IC50 [2] | EC50 [3] | IC50 [4]
CC1CC(C)CN(C(=O)c2ccc3c(c2NCCO)C(=O)c2ccccc2C3=O)C1 (stereo unspecified) | 14.5 µM (active) | > 100 µM (inactive) | 20 µM (active) | 13 µM (active)
CCC(=O)N(C1=C(NC)C(=O)c2ccccc2C1=O)C(C)C | 24.5 µM (active) |  | 9.21 µM (active) | 
